Source: patent US12077503B2, “Substituted cyclic amides and their use as herbicides” (FMC CORPORATION, priority 2015, dated 2024)

Columns and labels:
Type in all cases: in vivo
[1] = test system: Kochia (Kochia scoparia); experiment: Test A preemergence; conditions: Bassia scoparia, pre-emergence, 240 h, read-out: Plant response rating, Kochia; for pest or weed control at 125 g/ha: 125 g ai/ha, visual rating after approx. 10 d, 0 to 100 scale where 0 is no effect and 100 is complete control
Procedure, shortened: (§1)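 Each rating is a visual injury score from 0 to 100 given about 10 d after treatment, judged against untreated controls kept alongside in the greenhouse. In loam soil–sand blend, seeds got a preemergence directed soil spray, while postemergence plants were 2 to 10 cm tall at spraying.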

[2] = test system: barnyardgrass (Echinochloa crus-galli); experiment: Test A preemergence; conditions: Echinochloa crus-galli, pre-emergence, 240 h, read-out: Plant response rating, Barnyardgrass; for pest or weed control at 125 g/ha: 125 g ai/ha, visual rating after approx. 10 d, 0 to 100 scale where 0 is no effect and 100 is complete control
Procedure, shortened: as §1

[3] = test system: giant foxtail (Setaria faberii); experiment: Test A preemergence; conditions: Setaria faberi, pre-emergence, 240 h, read-out: Plant response rating, Foxtail, Giant; for pest or weed control at 125 g/ha: 125 g ai/ha, visual rating after approx. 10 d, 0 to 100 scale where 0 is no effect and 100 is complete control
Procedure, shortened: as §1

[4] = test system: pigweed (Amaranthus retroflexus); experiment: Test A preemergence; conditions: Amaranthus retroflexus, pre-emergence, 240 h, read-out: Plant response rating, Pigweed; for pest or weed control at 125 g/ha: 125 g ai/ha, visual rating after approx. 10 d, 0 to 100 scale where 0 is no effect and 100 is complete control
[5] = test system: ragweed (common ragweed, Ambrosia elatior); experiment: Test A preemergence; conditions: Ambrosia artemisiifolia, pre-emergence, 240 h, read-out: Plant response rating, Ragweed; for pest or weed control at 125 g/ha: 125 g ai/ha, visual rating after approx. 10 d, 0 to 100 scale where 0 is no effect and 100 is complete control
Procedure, shortened: as §1

[6] = test system: ryegrass, Italian (Italian ryegrass, Lolium multiflorum); experiment: Test A preemergence; conditions: Lolium multiflorum, pre-emergence, 240 h, read-out: Plant response rating, Ryegrass, Italian; for pest or weed control at 125 g/ha: 125 g ai/ha, preemergence, visual rating after approx. 10 d, 0 to 100 scale where 0 is no effect and 100 is complete control
Procedure, shortened: as §1

[7] = test system: blackgrass (Alopecurus myosuroides); experiment: Test A postemergence; conditions: Alopecurus myosuroides, post-emergence, 240 h, read-out: Plant response rating, Blackgrass; for pest or weed control at 125 g/ha: 125 g ai/ha, postemergence, visual injury after approximately 10 d, 0 to 100 scale (0 no effect, 100 complete control)
Procedure, shortened: as §1

[8] = test system: giant foxtail (Setaria faberii); experiment: Test A postemergence; conditions: Setaria faberi, post-emergence, 240 h, read-out: Plant response rating, Foxtail, Giant; for pest or weed control at 125 g/ha: 125 g ai/ha, postemergence, visual injury after approximately 10 d, 0 to 100 scale (0 no effect, 100 complete control)
Procedure, shortened: as §1

[9] = test system: pigweed (Amaranthus retroflexus); experiment: Test A postemergence; conditions: Amaranthus retroflexus, post-emergence, 240 h, read-out: Plant response rating, Pigweed; for pest or weed control at 125 g/ha: 125 g ai/ha, postemergence, visual injury after approximately 10 d, 0 to 100 scale (0 no effect, 100 complete control)
Procedure, shortened: as §1

[10] = test system: ryegrass, Italian (Italian ryegrass, Lolium multiflorum); experiment: Test A postemergence; conditions: Lolium multiflorum, post-emergence, 240 h, read-out: Plant response rating, Ryegrass, Italian; for pest or weed control at 125 g/ha: 125 g ai/ha, postemergence, visual injury after approximately 10 d, 0 to 100 scale (0 no effect, 100 complete control)
Procedure, shortened: as §1

[11] = test system: wheat (Triticum aestivum); experiment: Test A postemergence; conditions: Triticum aestivum, post-emergence, 240 h, read-out: Plant response rating, Wheat
Procedure, shortened: as §1

[12] = test system: barnyardgrass (Echinochloa crus-galli); experiment: Test B flooded paddy test; conditions: Echinochloa crus-galli, Flood, 250 g ai/ha; scale of 0 to 100 where 0 is no effect and 100 is complete control; read-out: Barnyardgrass plant response rating
Procedure, shortened: (§2)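 Visual ratings (0 none to 100 complete control) are relative to untreated plants, taken 13–15 d after treatment in a greenhouse. Test material went straight into floodwater standing 3 cm above the soil, kept constant, on plants at the 2-leaf stage.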

[13] = test system: ducksalad (Heteranthera limosa); experiment: Test B flooded paddy test; conditions: Heteranthera limosa, Flood, 250 g ai/ha; scale of 0 to 100 where 0 is no effect and 100 is complete control; read-out: Ducksalad plant response rating
Procedure, shortened: as §2

[14] = test system: rice (Oryra sativa); experiment: Test B flooded paddy test; conditions: Oryza sativa, Flood, 250 g ai/ha; scale of 0 to 100 where 0 is no effect and 100 is complete control; read-out: Rice plant response rating
Procedure, shortened: as §2

[15] = test system: sedge, umbrella (small-flower umbrella sedge, Cyperus difformis); experiment: Test B flooded paddy test; conditions: Cyperus difformis, Flood, 250 g ai/ha; scale of 0 to 100 where 0 is no effect and 100 is complete control; read-out: Sedge, Umbrella plant response rating
Procedure, shortened: as §2

[16] = Preemergence, 31 g ai/ha, 0 to 100 scale (0 no effect, 100 complete control)
[17] = Postemergence, 31 g ai/ha, visual injury after approx. 10 d, 0 to 100 scale, 0 no effect, 100 complete control
[18] = 500 g ai/ha, preemergence, 0 to 100 scale, 0 = no effect, 100 = complete control

SMILES	pest or weed control at 125 g/ha ([1]; preemergence)	pest or weed control at 125 g/ha ([2]; preemergence)	pest or weed control at 125 g/ha ([3]; preemergence)	pest or weed control at 125 g/ha ([4]; preemergence)	pest or weed control at 125 g/ha ([5]; preemergence)	pest or weed control at 125 g/ha [6]	pest or weed control at 125 g/ha [7]	pest or weed control at 125 g/ha [8]	pest or weed control at 125 g/ha [9]	pest or weed control at 125 g/ha [10]	pest or weed control at 250 g/ha [12]	pest or weed control at 250 g/ha [13]	pest or weed control at 250 g/ha [14]	pest or weed control at 250 g/ha [15]	also measured
C/C=C/C1CNC(=O)C1C(=O)Nc1ccccc1F (stereo not drawn) [Compound 792]	0%	0%	0%	0%	0%	0%	0%	0%	0%	0%	0%	0%	0%	0%	pest or weed control at 31 g/ha [1, 16]: 0%; pest or weed control at 31 g/ha [2, 16]: 0%; pest or weed control at 31 g/ha [3, 16]: 0%; pest or weed control at 31 g/ha [4, 16]: 0%; pest or weed control at 31 g/ha [5, 16]: 0%; pest or weed control at 31 g/ha [6, 16]: 0%; pest or weed control at 31 g/ha [7, 17]: 0%; pest or weed control at 31 g/ha [8, 17]: 0%; pest or weed control at 31 g/ha [9, 17]: 0%; pest or weed control at 31 g/ha [10, 17]: 0%; plant injury at 31 g/ha [11, 17]: 0%
CN1CC(c2cccc(OC/C=C/Cl)c2)C(C(=O)Nc2cccc(F)c2F)C1=O (stereo not drawn) [Compound 772]	0%	0%	50%	0%	0%	0%	0%	30%	0%	0%	0%	75%	0%	0%	pest or weed control at 500 g/ha [1, 18]: 30%; pest or weed control at 500 g/ha [2, 18]: 40%; pest or weed control at 500 g/ha [3, 18]: 90%; pest or weed control at 500 g/ha [4, 18]: 0%; pest or weed control at 500 g/ha [5, 18]: 0%; plant injury at 125 g/ha ([11]; 125 g ai/ha, postemergence, visual injury after approximately 10 d, 0 to 100 scale (0 no effect, 100 complete control)): 0%
